# Biological target: T1, FAAH (anandamide hydrolase; arachidonoylethanolamide amidohydrolase, EC 3.5.1.4) in human lymphocyte homogenates (Homo sapiens, UniProt O00519)
# T1 construct: Lymphocytes were purified from peripheral blood by gradient centrifugation; from tissue; host or cells: human peripheral blood lymphocytes of pregnant women, homogenate
# T1 sequence (O00519 1-579): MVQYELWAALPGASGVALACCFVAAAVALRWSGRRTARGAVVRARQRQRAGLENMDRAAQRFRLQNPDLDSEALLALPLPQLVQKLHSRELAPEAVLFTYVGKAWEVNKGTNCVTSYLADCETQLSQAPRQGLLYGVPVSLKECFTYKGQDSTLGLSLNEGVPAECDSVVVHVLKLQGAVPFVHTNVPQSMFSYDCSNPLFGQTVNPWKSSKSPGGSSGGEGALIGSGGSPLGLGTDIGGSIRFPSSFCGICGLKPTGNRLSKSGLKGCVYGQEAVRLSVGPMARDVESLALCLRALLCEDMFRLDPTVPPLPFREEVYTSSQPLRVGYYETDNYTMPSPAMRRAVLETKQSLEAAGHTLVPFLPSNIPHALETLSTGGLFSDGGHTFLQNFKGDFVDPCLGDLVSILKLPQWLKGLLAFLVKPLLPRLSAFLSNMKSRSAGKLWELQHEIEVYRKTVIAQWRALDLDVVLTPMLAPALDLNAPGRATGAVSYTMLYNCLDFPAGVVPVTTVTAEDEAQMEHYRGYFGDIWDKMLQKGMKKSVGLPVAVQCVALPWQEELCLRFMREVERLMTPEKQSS
# Experiment: Kinetic analysis of FAAH activity in human lymphocyte homogenates: release of [1-14C]arachidonic acid from [1-14C]anandamide, reversed phase HPLC
# Format: biochemical
# Settings: <8 weeks of pregnancy; for apparent maximum velocity (Vmax): lymphocyte homogenates
# Protocol: The activity of FAAH (arachidonoylethanolamide amidohydrolase, EC 3.5.1.4) in human lymphocyte homogenates (20 µg/test) was determined by measuring the release of [1-^14C] arachidonic acid from [1-^14C] anandamide (NEN DuPont de Nemours, 52 mCi/mmol), using reversed phase high performance liquid cromatography as reported in Maccarrone et al. 1998.
# The difference in FAAH activity between the group of 43 subjects with normal pregnancy (mean value = 169.60 ± 30.20 pmol.min^-1.mg protein^-1) and the group of 7 women who aborted (mean value 60.43 ± 29.34 pmol.min^-1.mg protein^-1) was statistically significant (P<0.0001 by the Mann-Whitney test). Embryonic death occurred approximately 10 days later, i.e. at 8 to 11 weeks for the subjects <7- to <10-week pregnant, respectively. […] On the other hand, the bell-shaped curve found for FAAH activity in normal subjects is frequently observed with biological indicators of the first trimester of pregnancy, such as the beta-subunit of human chorionic gonadotropin (Goldstein in Obstet Gynecol 1994).
# FAAH (arachidonoylethanolamide amidohydrolase, EC 3.5.1.4) activity in human lymphocyte homogenates (20 µg/test) was determined by measuring the release of [1-^14C]arachidonic acid from [1-^14C] anandamide (NEN DuPont de Nemours, 52 mCi/mmol), using reverse phase high performance liquid cromatography as reported (Maccarrone et al. 1998). It has to be pointed out that the use of [^3H] anandamide, measuring the release of [^3H]arachidonic acid, yields the same results.
structure (smiles),measurement,setting,value
"CCCCC/C=C\C/C=C\C/C=C\C/C=C\CCCC(=O)NCCO [anandamide, arachidonoylethanolamide]",apparent maximum velocity (Vmax),subjects who miscarried,75 ± 8 pmol.min^-1.mg protein^-1
same,apparent maximum velocity (Vmax),subjects with normal gestation,187 ± 20 pmol.min^-1.mg protein^-1
same,Km,"read-out: apparent Michaelis-Menten constant (Km), lymphocyte homogenates (20 µg/test), same value for subjects with normal gestation and those who miscarried",8 ± 1 µM

# Reference: patent EP1272659B1, “EARLY DIAGNOSIS OF M[…] HUMAN BEINGS” (Università degli Studi di Roma " Tor Vergata", priority 2000, dated 2001)
